The source of these data is ChEMBL document CHEMBL1201862, “PubChem BioAssay data set” (2004).

Assay [1] can be described thus: human group III sPLA2 inhibitors, dose response, biochemical, QFRET, IC50 (AID 743457).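 Also: green fluorescence rise as the enzyme cleaves BODIPY PC-A2 in liposomes; potency for inhibition of the enzyme.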
Assay [2] can be described thus: P. falciparum Dd2 growth inhibitors, dose response, SYBR Green, cherry-picked samples (AID 1159567). The format is functional, cell-based.
Assay [3] can be described thus: P. falciparum 3D7-ScDHODH growth inhibitors, dose response, SYBR Green, dry powder samples (AID 1159570).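 Also: parasite growth measured after 72 hours of compound exposure.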 In kind it is functional, cell-based.
Assay [4] in a line: HepG2 cell cytotoxicity, dose response, cytotoxicity control, plate reader, dry powder samples (AID 1159569).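 Also: inhibitor potency with signal falling toward the positive control level.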 In kind it is functional, cell-based.
Assay [5] is described as follows: P. falciparum Dd2 growth inhibitors, dose response, SYBR Green, dry powder samples (AID 1159566).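 Also: potency for growth inhibition with lower SYBR green DNA signal.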 In kind it is functional, cell-based.
Assay [6] is described as follows: P. falciparum ATP4 D1247Y mutant growth inhibitors, dose response, NITD609-resistant line, SYBR Green, dry powder (AID 1159571).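 Also: parasites synchronized at ring stage by sorbitol before testing.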 The format is functional, cell-based.
In assay [7] the target is T1, Disintegrin and metalloproteinase domain-containing protein 17 (Homo sapiens, UniProt P78536). Description: ADAM17 protease inhibitors, dose response, counter-screen for ADAM10 exosite inhibitor project, biochemical, quenched FRET substrate (AID 743253). (A counterscreen serves to expose hits that act by an unwanted route or on another target.)
T1 sequence (P78536 whole entry, the tested form may be a part): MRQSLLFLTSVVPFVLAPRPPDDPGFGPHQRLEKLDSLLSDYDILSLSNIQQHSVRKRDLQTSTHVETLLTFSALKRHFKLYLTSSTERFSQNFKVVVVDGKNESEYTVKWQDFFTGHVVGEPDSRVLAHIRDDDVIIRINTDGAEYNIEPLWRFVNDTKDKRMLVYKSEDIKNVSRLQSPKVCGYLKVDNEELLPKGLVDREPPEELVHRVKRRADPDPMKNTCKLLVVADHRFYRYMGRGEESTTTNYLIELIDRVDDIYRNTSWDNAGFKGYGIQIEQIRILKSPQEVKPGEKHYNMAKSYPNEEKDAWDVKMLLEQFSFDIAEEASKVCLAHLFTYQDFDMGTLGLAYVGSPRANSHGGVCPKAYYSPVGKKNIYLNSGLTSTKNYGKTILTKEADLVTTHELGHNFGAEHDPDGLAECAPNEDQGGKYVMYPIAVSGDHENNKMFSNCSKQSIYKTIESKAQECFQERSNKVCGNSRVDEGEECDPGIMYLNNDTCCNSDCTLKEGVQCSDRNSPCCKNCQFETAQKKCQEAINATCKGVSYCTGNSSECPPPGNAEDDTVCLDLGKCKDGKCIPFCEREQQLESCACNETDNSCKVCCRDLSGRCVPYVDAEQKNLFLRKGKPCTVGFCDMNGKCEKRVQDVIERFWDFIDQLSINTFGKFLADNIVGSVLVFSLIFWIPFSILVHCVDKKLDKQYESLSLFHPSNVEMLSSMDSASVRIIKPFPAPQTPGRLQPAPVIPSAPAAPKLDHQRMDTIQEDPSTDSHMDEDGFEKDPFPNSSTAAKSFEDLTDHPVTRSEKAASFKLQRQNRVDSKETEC
A short description of assay [8]: ADAM10 protease inhibitors, dose response, selectivity assay for ADAM17 exosite inhibitor project, biochemical, FRET peptide substrate, recombinant human ADAM10 (AID 743259).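 Also: ADAM10 enzyme cleaving a FRET peptide substrate.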
Assay [9] in a line: ADAM10 inhibitors, peptide cleavage, dose response, biochemical, QFRET (AID 743254).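 Also: ADAM10 enzyme with the DM2 quenched FRET peptide as substrate; EDANS fluorescence gain as the protease cuts the substrate; inhibitor potency against ADAM10 proteolytic activity.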
For assay [10], the target named is FAD-linked sulfhydryl oxidase ALR (Homo sapiens, UniProt P55789). Description: inhibitors of human ALR sulfhydryl oxidase, dose response, biochemical, H2O2 detection, luminescence, cherry-pick (AID 493248).
Sequence of FAD-linked sulfhydryl oxidase ALR (P55789 whole entry, the tested form may be a part): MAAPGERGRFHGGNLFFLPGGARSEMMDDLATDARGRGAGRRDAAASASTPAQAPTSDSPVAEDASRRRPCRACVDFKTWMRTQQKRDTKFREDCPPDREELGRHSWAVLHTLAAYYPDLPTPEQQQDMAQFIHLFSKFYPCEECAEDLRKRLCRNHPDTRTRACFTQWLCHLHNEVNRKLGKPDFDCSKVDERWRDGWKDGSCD
Assay [11] has as its target T1, Disintegrin and metalloproteinase domain-containing protein 17. As to the kind of experiment: exosite inhibitors of ADAM17, dose response, biochemical (AID 743260).
Assay [12] concerns the target Peroxisome proliferator-activated receptor gamma/Nuclear receptor corepressor 2 (Homo sapiens, UniProt P37231+Q9Y618). As to the kind of experiment: Counterscreen for NR2E3 inverse agonists: TR-FRET-based biochemical high throughput dose response assay to identify inverse agonists of the interaction between peroxisome proliferator-activated receptor gamma (PPARg) and nuclear receptor co-repressor 2 (NCOR2). The format is functional.

Assay [13] concerns the target Photoreceptor-specific nuclear receptor (Homo sapiens, UniProt Q9Y5X4). Description: NR2E3 inverse agonists, dose response, biochemical, TR-FRET (AID 463256). In kind it is functional. A general note: Time-resolved FRET reads energy transfer from a long-lived donor to a nearby acceptor.
A short description of assay [14]: HeLa 4N DNA content increase, dose response, cell-based, IC50 (AID 1117351). The format is functional.
Assay [15] in a line: HeLa 2N DNA content increase, dose response, cell-based, IC50 (AID 1117349). In kind it is functional.
A short description of assay [16]: inhibitors of PGC1a acetylation in cells, dose response, cell-based, cherry-picked samples (AID 720514).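 Also: potency may reflect raised or lowered acetylation signal.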 The format is functional.
The test system of assay [17] is Streptococcus. Description: Group A Streptococcus viability loss, dose response, counter-screen for streptokinase expression inhibitor project, luminescence, BacTiterGlo (AID 1915).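 Also: potency for reduction of bacterial viability or growth.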 In kind it is functional, organism-based.
Assay [18] relates to Streptococcus sp. 'group A'. Description: growth inhibition of control SK(-) GAS strain, dose response, counter-screen for streptokinase expression inhibitor project, luminescence, kanamycin, BacTiterGlo, confirmation (AID 1900). The format is functional, organism-based.
Assay [19] addresses T2, Streptokinase A (Streptococcus pyogenes serotype M1, UniProt P10520).
T2 sequence (P10520 whole entry): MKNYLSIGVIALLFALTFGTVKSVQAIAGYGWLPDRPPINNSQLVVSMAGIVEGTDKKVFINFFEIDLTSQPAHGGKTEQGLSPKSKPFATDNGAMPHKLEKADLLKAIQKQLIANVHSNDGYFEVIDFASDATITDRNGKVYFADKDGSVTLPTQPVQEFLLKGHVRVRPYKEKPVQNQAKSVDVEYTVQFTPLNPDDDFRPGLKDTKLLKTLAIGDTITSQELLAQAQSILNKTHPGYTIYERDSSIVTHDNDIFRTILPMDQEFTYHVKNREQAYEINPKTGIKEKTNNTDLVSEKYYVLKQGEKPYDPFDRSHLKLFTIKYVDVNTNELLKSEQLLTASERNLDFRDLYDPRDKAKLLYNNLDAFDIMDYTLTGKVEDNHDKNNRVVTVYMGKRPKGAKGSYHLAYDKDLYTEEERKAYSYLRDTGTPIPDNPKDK
Description: S. pyogenes streptokinase expression inhibitors, potency, dose response, plasminogen activation absorbance, OD405 (AID 1914).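 Also: secreted streptokinase activity via plasminogen activation per viability signal from cell pellet.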 In kind it is functional, Streptococcus pyogenes M1 GAS.

The nature of assay [20]: HEp-2 cell cytotoxicity, dose response, cytotoxicity control for RSV inhibitor project, HTS (AID 2410). In kind it is functional. As to conditions: human respiratory syncytial virus.
Assay [21] is described as follows: Luminescence Cell-Based Dose Retest to Confirm Inhibitors of Cancer Stem Cells. [Related pubchem assays (depositor defined):AID2717, AID2721]. The format is functional. As to conditions: Homo sapiens.

Structures are written as SMILES. The source made the active and inactive calls. Where only a bound is given, the exact number is not on record here.

Sequence of Peroxisome proliferator-activated receptor gamma/Nuclear receptor corepressor 2 (P37231 whole entry): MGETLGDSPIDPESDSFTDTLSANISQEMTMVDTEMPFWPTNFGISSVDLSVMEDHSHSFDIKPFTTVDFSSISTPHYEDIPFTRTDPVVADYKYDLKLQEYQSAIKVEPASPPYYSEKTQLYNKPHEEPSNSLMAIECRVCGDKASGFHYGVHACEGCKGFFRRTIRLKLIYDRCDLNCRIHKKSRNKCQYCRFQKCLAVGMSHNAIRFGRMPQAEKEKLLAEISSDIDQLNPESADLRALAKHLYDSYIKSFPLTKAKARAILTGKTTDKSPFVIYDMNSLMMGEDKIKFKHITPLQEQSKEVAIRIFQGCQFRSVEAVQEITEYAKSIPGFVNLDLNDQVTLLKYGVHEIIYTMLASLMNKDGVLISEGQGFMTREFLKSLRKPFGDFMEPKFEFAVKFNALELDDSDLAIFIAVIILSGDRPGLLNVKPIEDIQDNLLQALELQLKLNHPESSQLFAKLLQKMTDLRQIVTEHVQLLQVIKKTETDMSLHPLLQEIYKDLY
Sequence of Peroxisome proliferator-activated receptor gamma/Nuclear receptor corepressor 2 (Q9Y618 whole entry): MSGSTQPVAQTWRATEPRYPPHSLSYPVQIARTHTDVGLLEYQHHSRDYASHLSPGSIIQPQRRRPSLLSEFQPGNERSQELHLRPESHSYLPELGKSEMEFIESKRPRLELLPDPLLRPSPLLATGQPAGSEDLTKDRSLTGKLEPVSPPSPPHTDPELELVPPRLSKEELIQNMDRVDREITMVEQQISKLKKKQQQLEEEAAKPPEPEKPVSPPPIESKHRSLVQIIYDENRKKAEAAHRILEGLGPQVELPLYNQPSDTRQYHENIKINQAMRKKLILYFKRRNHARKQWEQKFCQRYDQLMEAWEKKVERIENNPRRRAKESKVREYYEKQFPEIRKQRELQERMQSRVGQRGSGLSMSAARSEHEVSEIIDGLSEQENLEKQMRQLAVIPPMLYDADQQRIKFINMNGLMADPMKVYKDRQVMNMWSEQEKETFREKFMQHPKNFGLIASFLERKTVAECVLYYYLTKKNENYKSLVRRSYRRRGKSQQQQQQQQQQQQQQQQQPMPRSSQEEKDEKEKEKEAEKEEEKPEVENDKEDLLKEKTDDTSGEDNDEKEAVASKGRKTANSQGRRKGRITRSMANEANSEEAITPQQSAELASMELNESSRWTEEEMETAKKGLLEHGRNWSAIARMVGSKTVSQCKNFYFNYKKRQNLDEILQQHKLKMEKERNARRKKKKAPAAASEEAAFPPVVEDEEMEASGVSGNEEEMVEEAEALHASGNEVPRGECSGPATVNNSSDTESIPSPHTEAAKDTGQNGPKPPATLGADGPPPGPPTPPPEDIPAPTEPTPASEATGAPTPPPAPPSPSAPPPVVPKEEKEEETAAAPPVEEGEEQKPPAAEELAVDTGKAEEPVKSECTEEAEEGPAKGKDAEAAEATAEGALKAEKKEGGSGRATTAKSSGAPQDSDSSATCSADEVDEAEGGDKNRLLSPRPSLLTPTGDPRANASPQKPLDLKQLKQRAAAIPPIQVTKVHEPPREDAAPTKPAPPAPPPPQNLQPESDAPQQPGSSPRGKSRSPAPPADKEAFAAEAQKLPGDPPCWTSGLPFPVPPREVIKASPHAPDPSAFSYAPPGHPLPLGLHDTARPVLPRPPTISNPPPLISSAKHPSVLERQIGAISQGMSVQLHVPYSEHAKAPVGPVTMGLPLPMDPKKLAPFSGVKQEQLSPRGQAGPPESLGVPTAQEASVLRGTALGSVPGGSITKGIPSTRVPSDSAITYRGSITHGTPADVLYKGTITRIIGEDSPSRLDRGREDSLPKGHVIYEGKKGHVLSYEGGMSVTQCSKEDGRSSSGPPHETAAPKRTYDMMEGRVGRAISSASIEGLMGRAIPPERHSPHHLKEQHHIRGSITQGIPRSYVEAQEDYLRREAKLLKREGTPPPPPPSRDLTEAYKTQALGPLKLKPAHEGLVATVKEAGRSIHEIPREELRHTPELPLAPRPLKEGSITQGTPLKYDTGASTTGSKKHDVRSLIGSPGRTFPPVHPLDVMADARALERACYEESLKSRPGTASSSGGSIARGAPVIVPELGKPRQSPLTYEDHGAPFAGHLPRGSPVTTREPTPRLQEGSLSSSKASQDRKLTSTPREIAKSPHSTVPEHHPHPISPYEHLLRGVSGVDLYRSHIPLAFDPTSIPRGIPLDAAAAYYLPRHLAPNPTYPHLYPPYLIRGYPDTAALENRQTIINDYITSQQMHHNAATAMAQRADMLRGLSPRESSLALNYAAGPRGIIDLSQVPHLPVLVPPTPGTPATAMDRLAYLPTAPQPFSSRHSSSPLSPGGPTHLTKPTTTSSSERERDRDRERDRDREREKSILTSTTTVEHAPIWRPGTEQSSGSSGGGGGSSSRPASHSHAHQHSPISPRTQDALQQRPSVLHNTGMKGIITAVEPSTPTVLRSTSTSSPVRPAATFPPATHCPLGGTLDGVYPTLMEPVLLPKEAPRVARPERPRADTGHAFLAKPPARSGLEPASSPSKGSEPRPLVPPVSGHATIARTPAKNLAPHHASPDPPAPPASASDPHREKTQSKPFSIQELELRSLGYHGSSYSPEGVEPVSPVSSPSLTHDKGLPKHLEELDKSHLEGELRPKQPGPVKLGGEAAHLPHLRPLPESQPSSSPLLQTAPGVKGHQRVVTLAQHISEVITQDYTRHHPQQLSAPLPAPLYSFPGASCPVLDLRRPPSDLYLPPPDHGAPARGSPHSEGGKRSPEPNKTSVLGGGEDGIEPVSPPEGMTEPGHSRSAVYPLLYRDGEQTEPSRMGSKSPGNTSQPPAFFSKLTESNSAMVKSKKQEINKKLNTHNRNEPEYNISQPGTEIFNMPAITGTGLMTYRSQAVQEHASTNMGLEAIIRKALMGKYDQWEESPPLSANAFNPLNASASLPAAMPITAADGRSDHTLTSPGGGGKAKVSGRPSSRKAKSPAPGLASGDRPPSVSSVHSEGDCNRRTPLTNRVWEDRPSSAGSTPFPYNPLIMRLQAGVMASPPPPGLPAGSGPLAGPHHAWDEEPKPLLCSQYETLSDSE
Sequence of Photoreceptor-specific nuclear receptor (Q9Y5X4 whole entry): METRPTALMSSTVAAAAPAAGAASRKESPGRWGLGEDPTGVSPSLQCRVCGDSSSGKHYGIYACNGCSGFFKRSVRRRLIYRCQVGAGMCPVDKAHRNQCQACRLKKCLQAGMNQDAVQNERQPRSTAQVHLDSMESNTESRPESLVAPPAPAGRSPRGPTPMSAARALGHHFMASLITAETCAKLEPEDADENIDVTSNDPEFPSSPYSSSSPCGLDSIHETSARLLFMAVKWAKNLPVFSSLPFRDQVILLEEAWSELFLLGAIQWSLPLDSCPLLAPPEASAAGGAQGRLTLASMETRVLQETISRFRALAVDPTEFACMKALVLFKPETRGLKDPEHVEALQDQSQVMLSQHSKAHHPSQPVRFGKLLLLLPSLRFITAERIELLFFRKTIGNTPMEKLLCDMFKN

`O=C(CNc1ccc(Cl)cc1)NNC(=S)NCc1ccccc1`: the IC50 (commonly the point on the concentration scale where inhibition reaches its midpoint) in [1] was > 122 µM (inactive).

In the case of `CCCN(C)C[C@H]1Oc2ncc(C#Cc3ccc(F)cc3)cc2C(=O)N([C@@H](C)CO)C[C@H]1C`, the concentration at half-maximal activity (AC50) (commonly the concentration giving half of the maximal activity seen) in assay [2] is 2.37 µM (active); in assay [3], 2.14 µM (active); in assay [4], 24.3 µM (active); in assay [5], 1.24 µM (active); in [6], 1.23 µM (active).

Regarding `O=C(NO)c1ccc(OC(F)F)cc1`, the IC50 in assay [7] is 36.5 µM (inactive); in [8] it was 40.2 µM (inactive); in assay [9], 37 µM (inactive); in assay [11], 29.5 µM (inactive). Also, the AC50 in assay [10] is 4.38 µM (active).

For `O=C(CSc1ccc(-c2cccs2)nn1)N1CCCCCC1`, the IC50 is > 39.8 µM (not active) in [12] and 4.73 µM (active) in [13].

`Cc1ccc(Nc2nccc(N(C)c3ccc4c(C)n(C)nc4c3)n2)cc1S(N)(=O)=O` [PAZOPANIB]: the IC50 in assay [14] and in [15] was > 10 µM (inactive) in each case.

As for `Oc1ccc(/C=N/Nc2nc(-c3ccc(Cl)cc3)cc(C(F)(F)F)n2)cc1`, the concentration at half-maximal activity (AC50) in [16] was 31.7 µM (active); in assay [21] it was 4.06 µM (active). The figures for the 50% effective concentration (EC50) in [17], in [18] and in assay [19] were > 150 µM (not active), 12.1 µM (active) and 16.3 µM (active), respectively. The CC50 (usually the concentration at which the toxic effect on the cells reaches its halfway point) in assay [20] was 13.4 µM (active).

In the case of `COc1cnn(-c2ccccc2)c(=O)c1SCc1ccc(Cl)c(Cl)c1`, the 50% inhibitory concentration (IC50) in assay [12] was 5.85 µM (active); in [13], 5 µM (active).

For `CS(=O)(=O)N(CC(=O)N1CCC(C(N)=O)CC1)c1ccc(Oc2ccccc2)cc1`, the IC50 was 0.792 µM (active) in assay [12] and 1.05 µM (active) in [13].
